Data: US12697325B2 (TENNOR THERAPEUTICS (SUZHOU) LIMITED, priority 2021, dated 2026)

Tests used:
[1] = system: Acinetobacter baumannii clinical strains; assay: Information of drug resistance of 10 clinical strains; assay type: cell-based; design: key: S: Drug Susceptible; I: Drug Intermediate; R: Drug Resistant
[2] = Pharmacokinetics in plasma and bronchoalveolar lavage fluid of female CD-1 mice; assay type: in vivo; conditions: mouse, in vivo
Method: An appropriate amount of the test drug was accurately weighed and mixed with the appropriate volume of vehicle (5% DMSO+0.5% Tween 80 in normal saline) to obtain a clear solution for the test in Table 9. The formulation solution for injection was prepared to sterile filtration through a 0.22 μm filter prior to administration. The mice were dosed with the drug within 30 min after the formulated solution for injection was prepared. A 1.5 mL of the formulation solution for injection was transferred into a polypropylene microcentrifuge tube for dose verification by LC/UV or LC-MS/MS.
All blood samples were transferred to pre-frozen EDTA-K2 tubes and placed on wet ice until centrifugation. […]
Plasma: approximately 100 μL of blood sample was transferred into pre-cooled commercial EDTA-K2 tubes and placed on wet ice until centrifugation. After the blood samples were centrifuged at approximately 4° C. and 3, 200 g for 10 min, plasma was collected and transferred to pre-labeled 96-well plates or polypropylene tubes, flash frozen on dry ice, and stored at ≤−60° C. until the analysis by LC-MS/MS.
Serum: approximately 100 μL of blood sample was transferred into a tube without anticoagulant and placed on wet ice for approximately 30 min and centrifuged at 4° C. and 3,000 g for 10 min, and the serum was collected and transferred into pre-labeled PP tubes placed on wet ice. After the completion of all the collections, serum samples were stored at −60° C. until being sent to the animal experimental team to determine urea concentration.
Bronchoalveolar lavage fluid (BALF): pre-cooled tracheo-alveolar lavage fluid was injected into the trachea or predefined bronchi. After a full expansion of the lung tissue, the lavage fluid was slowly drawn out with a syringe 30 s later. The lung was lavaged three times. During the last lavage, the lung tissue was gently squeezed to restore the fluid. To prevent contamination of other lung tissues, the corresponding bronchi were ligated. Both lungs of the mice were perfused with 0.8 mL.
[…] Approximately 200 μL of the BALF samples were transferred into a polypropylene tube, rapidly frozen on dry ice, maintained at ≤−60° C., and sent to the animal experimental team to determine urea concentration. The remaining BALF samples (approximately 600 μL) were rapidly frozen on dry ice and maintained at ≤−60° C. until being submitted for drug concentration analysis by LC-MS/MS.

[3] = system: clinical strains of Acinetobacter baumannii; assay: Minimum inhibitory concentration (CLSI M07), Example 1, clinical strains; assay type: cell-based; conditions: combination MIC = sum of the concentrations of the two compounds
Method: (§1) The minimum inhibitory concentration (MIC) was determined in accordance with the requirements of the Clinical and Laboratory Standards Institute (CLSI) M07 (for aerobic bacteria).
3.1 The compounds were diluted with water up to 100 times of the highest concentration tested.
The dilution steps are as follows: first dilute the compounds or antibiotics to 100 times of the highest final concentration tested, and then:
A 50 μL of sterile water and 50 μL of avibactam sodium mother liquid were added into the A row of the second 96-well plate, and 50 μL of water was added into each of the remaining wells. A 50 μL of liquid was pipetted from the A row and added into the B row; after being pipetted up and down to even, 50 μL of the solution was pipetted and added to the C row, and diluted in a 2-fold gradient in turn for a total of 6 times and then, 50 μL was removed from each well of the G row to obtain the compound solution diluted to a 2-fold gradient and then 4 μL was transferred to a 96-well test plate.
Aerobic bacteria: the strains were inoculated on MHA one day in advance and incubated overnight at 37° C. On the day of the assay, 5-6 single colonies were picked and suspended evenly in saline, and the bacterial concentration was adjusted to the turbidity of 0.5 McFarland standard (concentration is about 1×10^8 CFU/mL). The bacterial suspension was diluted 200 times with the corresponding liquid culture medium (Table 1), i.e., at a bacterial concentration of ~5×10^5 CFU/ml, then 192 μL was transferred to a 96-well round bottom plate to obtain the test plate. Then, the 96-well round bottom plate obtained above was placed into an incubator at 37° C. and 85% humidity to incubate for 20 h.

[4] = system: Acinetobacter baumannii strains; assay: Minimum inhibitory concentration (CLSI M07), Example 2, 20 strains; assay type: cell-based
Method: as §1
3.1 The compounds were diluted with DMSO up to 100 times of the highest concentration tested.
The steps of manual dilution are as follows (example): firstly, the compound or antibiotic was diluted to 100 times of the maximum final concentration tested, then 60 μL of compound mother liquor was added to the first column of the 96-well plate, and 30 μL of DMSO was added to each well in the second to the 12th column; 30 μL of the liquid was transferred from the first column to the second column. After being pipetted up and down to even, 30 μL was transferred to the third column, and was diluted in sequence at a 2-fold gradient for a total of 10 times; then 30 μL was removed from each well in the 11th column, then a compound solution diluted at 2-fold gradient was obtained and 1 μL was transferred to a 96-well test plate.
Aerobic bacteria: the strains were inoculated on MHA one day in advance and incubated overnight at 37° C. On the day of the assay, 5-6 single colonies were picked and suspended evenly in saline, and the bacterial concentration was adjusted to the turbidity of 0.5 McFarland standard (concentration is about 1×10^8 CFU/mL). The bacterial suspension was diluted at 200-fold with the corresponding liquid culture medium (Table 1), i.e., the bacterial concentration was ~5×10^5 CFU/ml, and then 100 μL of the liquid was transferred to a 96-well round bottom plate (the 96-well plate with compound prepared in 4.2, Echo method) to obtain the test plate. If the compound was manually diluted, then 99 μL of the solution was transferred into a 96-well round bottom plate. The 96-well round bottom plate obtained above was placed into an incubator at 37° C. and 85% humidity to incubate for 20 h.

NCC[C@H](O)C(=O)N[C@@H]1C[C@H](N)[C@@H](O[C@H]2O[C@H](CN)[C@@H](O)[C@H](O)[C@H]2O)[C@H](O)[C@H]1O[C@H]1O[C@H](CO)[C@@H](O)[C@H](N)[C@H]1O [Amikacin]
Drug resistance ([1]; strain TNP041702): R | Drug resistance ([1]; strain TNP041703): R | Drug resistance ([1]; strain TNP041704): R | Drug resistance ([1]; strain TNP041705): R | Drug resistance ([1]; strain TNP041706): S | Drug resistance ([1]; strain TNP041707): R | Drug resistance ([1]; strain TNP041708): S | Drug resistance ([1]; strain TNP041709): R | Drug resistance ([1]; strain TNP041710): R | Drug resistance ([1]; strain TNP041711): R

NC(=O)[C@@H]1CC[C@@H]2CN1C(=O)N2OS(=O)(=O)[O-].[Na+] [Avibactam sodium, avibactam sodium]
AUC Ratio [2]: 0.0257 | Part of the dosing interval with free plasma concentration above the MIC of strain BAA-1795 [2]: more than 50% | Part of the dosing interval with plasma concentration above the MIC of strain BAA-1795 [2]: more than 50% | AUC0-last, BALF ([2]; iv, 150 mg/kg): 1319 ng·h/mL | AUC0-last, plasma ([2]; iv, 150 mg/kg): 51289 ng·h/mL | Cl ([2]; iv, 150 mg/kg): 48.7 mL/min/kg | MRT0-last, BALF ([2]; iv, 150 mg/kg): 103 min | MRT0-last, plasma ([2]; iv, 150 mg/kg): 26.3 min | T1/2, BALF ([2]; iv, 150 mg/kg): 45.7 min | T1/2, plasma ([2]; iv, 150 mg/kg): 73.8 min | MIC50 [3]: >32 µg/mL | MIC90 [3]: >32 µg/mL | MIC range [3]: >32 µg/mL | MIC50 ([4]; Example 2, 20 strains): >128 µg/mL | MIC90 ([4]; Example 2, 20 strains): >128 µg/mL | MIC range ([4]; Example 2, 20 strains): >128 µg/mL | MIC ([4]; strain ARLG-1791): >128 µg/mL | MIC ([4]; strain ARLG-1809): >128 µg/mL | MIC ([4]; strain ARLG-1852): >128 µg/mL | MIC ([4]; strain ARLG-1853): >128 µg/mL | MIC ([4]; strain ARLG-1881): >128 µg/mL | MIC ([4]; strain ATCC 17978): >128 µg/mL | MIC ([4]; strain ATCC 19606): >128 µg/mL | MIC ([4]; strain ATCC-BAA-1605): >128 µg/mL | MIC ([4]; strain ATCC-BAA-1789): >128 µg/mL | MIC ([4]; strain ATCC-BAA-1790): >128 µg/mL | MIC ([4]; strain ATCC-BAA-1791): >128 µg/mL | MIC ([4]; strain ATCC-BAA-1792): >128 µg/mL | MIC ([4]; strain ATCC-BAA-1793): >128 µg/mL | MIC ([4]; strain ATCC-BAA-1794): >128 µg/mL | MIC ([4]; strain ATCC-BAA-1795): >128 µg/mL | MIC ([4]; strain ATCC-BAA-1796): >128 µg/mL | MIC ([4]; strain ATCC-BAA-1797): >128 µg/mL | MIC ([4]; strain ATCC-BAA-1798): >128 µg/mL | MIC ([4]; strain ATCC-BAA-1799): >128 µg/mL | MIC ([4]; strain ATCC-BAA-1800): >128 µg/mL | MIC of the strain BAA-1795 (component in the combination) ([4]; strain BAA-1795, sulbactam/avibactam 4:1, concentration of the named component): 2 µg/mL

Cc1nnc(SCC2=C(C(=O)O)N3C(=O)[C@@H](NC(=O)Cn4cnnn4)[C@H]3SC2)s1 [Cefazolin]
Drug resistance ([1]; strain TNP041702): R | Drug resistance ([1]; strain TNP041703): R | Drug resistance ([1]; strain TNP041704): R | Drug resistance ([1]; strain TNP041705): R | Drug resistance ([1]; strain TNP041706): R | Drug resistance ([1]; strain TNP041707): R | Drug resistance ([1]; strain TNP041708): R | Drug resistance ([1]; strain TNP041709): R | Drug resistance ([1]; strain TNP041710): R | Drug resistance ([1]; strain TNP041711): R

CO/N=C(\C(=O)N[C@@H]1C(=O)N2C(C(=O)[O-])=C(C[N+]3(C)CCCC3)CS[C@H]12)c1csc(N)n1 [Cefepime]
Drug resistance ([1]; strain TNP041702): R | Drug resistance ([1]; strain TNP041703): R | Drug resistance ([1]; strain TNP041704): R | Drug resistance ([1]; strain TNP041705): R | Drug resistance ([1]; strain TNP041706): R | Drug resistance ([1]; strain TNP041707): R | Drug resistance ([1]; strain TNP041708): R | Drug resistance ([1]; strain TNP041709): R | Drug resistance ([1]; strain TNP041710): R | Drug resistance ([1]; strain TNP041711): R

CO/N=C(\C(=O)N[C@@H]1C(=O)N2C(C(=O)O)=C(COC(C)=O)CS[C@H]12)c1csc(N)n1 [Cefotaxime]
Drug resistance ([1]; strain TNP041702): R | Drug resistance ([1]; strain TNP041703): R | Drug resistance ([1]; strain TNP041704): R | Drug resistance ([1]; strain TNP041705): R | Drug resistance ([1]; strain TNP041706): R | Drug resistance ([1]; strain TNP041707): R | Drug resistance ([1]; strain TNP041708): R | Drug resistance ([1]; strain TNP041709): R | Drug resistance ([1]; strain TNP041710): R | Drug resistance ([1]; strain TNP041711): R
